Reference: patent US7863255B2, “Methods of administering antitumor agent comprising deoxycytidine derivative” (Taiho Pharmaceutical Co., Ltd., priority 2008, dated 2011)

What was measured:
[1] = system: human colon cancer line KM20C; test: Antitumor effect of continuous intravenous infusion of CNDAC and gemcitabine in tumor-bearing rats; format: in vivo, rat
Description: The antitumor effect was studied in a continuous intravenous infusion of CNDAC and gemcitabine administered to tumor-bearing rats having the human colon cancer line KM20C. FIG. 2 indicates the results.
CNDAC was administered by continuous intravenous infusion (continuously injected under the skin for 24 hours using a subcutaneous implantation constant-speed pump) in an amount of 36 mg/kg/day on Days 1 and 8, or 4.5 mg/kg/day on Days 1 to 14. Alternatively, gemcitabine was administered by rapid intravenous infusion in an amount of 300 mg/kg/day once a week for two weeks (Days 1 and 8), or by continuous intravenous infusion in an amount of 1.0 mg/kg/day for two weeks. Relative tumor volume was obtained and compared in a drug administered group and a non-administered group (control group) of each administration method.

[2] = Side effect (body weight suppression) in tumor-bearing rats having PAN-4; format: in vivo, rat
Description: (§1) A relation between the antitumor effect and side effect (body weight suppression) was studied in a continuous intravenous infusion of CNDAC administered to tumor-bearing rats having the human pancreatic cancer line PAN-4. FIGS. 3 and 4 indicate the results.
(§2) CNDAC was administered by continuous intravenous infusion (continuously injected under the skin for 24 hours using a subcutaneous implantation constant-speed pump) in an amount of 36 mg/kg/day on Day 1, or 4.5 mg/kg/day on Days 1 to 14. Relative tumor volume was obtained and compared in a CNDAC administered group and a non-administered group (control group) of each administration method.
Further, body weight reduction in the two-week continuous intravenous infusion group and 24-hour continuous intravenous infusion group was studied.

[3] = system: human-derived tumor lines; test: Antitumor tests using animal models, rapid intravenous infusion; format: in vivo; details: rapid intravenous infusion for 10 consecutive days, five times a week for two weeks, or once a week for two weeks; majority of lines; regrowth after completion
Excerpt: However, the regrowth of tumors was observed after completion of the administration, and the cytoreductive effect was not necessarily shown. Further, increasing the dosage so as to increase the antitumor effect causes toxicity, including body weight suppression and leucopenia.

[4] = system: human breast cancer and colon cancer lines; test: Antitumor effect, rapid vs continuous intravenous infusion in tumor-bearing rat models, further lines; format: in vivo
[5] = system: patients having a variety of solid cancers; test: Clinical Phase I equivalent test, continuous intravenous infusion for 336 hours once every three weeks; format: in vivo, human
Description: The frequency of adverse events and treatment effect were studied in a case where a course was repeatedly performed in which the antitumor agent was administered to cancer patients by continuous intravenous infusion in an amount of 2.0 to 4.0 mg/m^2 of CNDAC (free base) for a duration of 336 hours once every three weeks.
(§3) The present test was conducted on patients having a variety of solid cancers for which standard treatment was ineffective or no treatment was available (e.g., digestive system cancer, head and neck cancer, breast cancer, and the like). The test is equivalent to the Clinical Phase I Test, which primarily evaluates safety so as to determine a recommended dose (RD) that can be safely administered with no side effect concerns in the Clinical Phase II Test implemented per cancer type. Treatment effect on tumors was also evaluated in the test when possible. In the treatment effect test, the cytoreductive effect was determined based on comprehensive evaluation of target lesions (lesions having a size measurable at a slice width on CT and a larger size) and non-target lesions (all lesions not included in the target lesions), with reference to the RECIST evaluation method (Journal of the National Cancer Institute, 2000, Vol. 92, No. 3, 205-216). […] SD (stable disease) indicates a case where reduction of tumors was not enough to be determined as PR, but insufficient to be determined as PD; and the progression of tumors stopped and no exacerbation was observed.

[6] = system: human pancreatic cancer line PAN-4; test: Antitumor effect of continuous intravenous infusion in tumor-bearing rats; format: in vivo, rat; details: two-week continuous infusion 4.5 mg/kg/day Days 1 to 14 compared with 24-hour continuous infusion 36 mg/kg/day Day 1
Description: as §1, §2

[7] = system: human lung cancer line LX-1; test: Antitumor effect, rapid vs continuous intravenous infusion in tumor-bearing rats; format: in vivo, rat; details: continuous infusion 4.5 mg/kg/day for two weeks compared with rapid intravenous infusion (800 mg/kg/day Days 1, 5, 8, 12 or 20 mg/kg/day Days 1-5 and 8-12)
Description: The antitumor effect was studied in rapid intravenous infusion and continuous intravenous infusion of CNDAC in tumor-bearing rat models. FIG. 1 indicates the study results of the antitumor effect in rapid intravenous infusion and continuous intravenous infusion of CNDAC administered to tumor-bearing rats having the human lung cancer line LX-1.
CNDAC (free base) was administered by rapid intravenous infusion (rapidly injected into a caudal vein using a syringe) in an amount of 800 mg/kg/day on Days 1, 5, 8, and 12, or 20 mg/kg/day on Days 1 to 5 and 8 to 12. Alternatively, CNDAC was administered by continuous intravenous infusion (continuously injected under the skin for 24 hours using a subcutaneous implantation constant-speed pump) in an amount of 4.5 mg/kg/day for two weeks. Relative tumor volume (a ratio of tumor volume on Day 1 of administration and that on Day 14 of administration) was obtained in a CNDAC administered group and a non-administered group (control group) of each administration method, and the obtained relative tumor volume was compared.

[8] = system: patients having a variety of solid cancers; test: Clinical Phase I equivalent test, continuous intravenous infusion for 168 hours once every two weeks; format: in vivo, human
Description: as §3
The frequency of adverse events and treatment effect were studied in a case where a course was repeatedly performed in which the antitumor agent was administered by continuous intravenous infusion in an amount of 3.0 to 4.0 mg CNDAC (free base) per square meter of body surface area for a duration of 168 hours once every two weeks. Tested patients, evaluation methods, and evaluation standards are the same as those in the test in Example 1.

[9] = 3.0 mg/m^2, 336 hours once every three weeks
[10] = 4.0 mg/m^2, 168 hours once every two weeks

In the case of `Nc1ccn([C@@H]2O[C@H](CO)[C@@H](O)C2(F)F)c(=O)n1` [gemcitabine, reference compound], the “tumor volume after completion of administration” value ([1]; gemcitabine continuous intravenous infusion 1.0 mg/kg/day for two weeks) is reported as “not reduced after the administration was completed”.

In the case of `N#C[C@H]1[C@H](O)[C@@H](CO)O[C@H]1n1ccc(N)nc1=O` [CNDAC, 4-amino-1-(2-cyano-2-deoxy-β-D-arabinofuranosyl)-2(1H)-pyrimidinone], the “body weight reduction at maximum” value ([2]; 24-hour continuous intravenous infusion group, 36 mg/kg/day on Day 1) is reported as 20.4%, the “body weight reduction at maximum” value ([2]; two-week continuous intravenous infusion, 4.5 mg/kg/day on Days 1 to 14) is reported as 4.6% and the “antitumor and antiproliferative effects” value [3] is reported as “strong antitumor and antiproliferative effects”. For the same molecule, the “tumor volume after completion of administration” value ([1]; CNDAC continuous intravenous infusion (36 mg/kg/day Days 1 and 8 or 4.5 mg/kg/day Days 1 to 14)) was “significantly reduced even after the administration was completed”, the “antitumor effect of continuous compared with rapid intravenous infusion” value [4] was “The effect was exhibited” and the “adverse event requiring interruption of the administration” value ([5]; 2.0 mg/m^2, 336 hours once every three weeks) was “no adverse event was seen that required interruption of the administration”. For the same molecule, the “reduction (tumor) in one SD case” value ([5]; 2.0 mg/m^2, 336 hours once every three weeks, one case) was “about 15%”, the “dose limiting toxicity (DLT)” value [5, 9] was “not observed” and the “neutropenia of Grades 3 and 4” value [5, 9] was “found in the second case each of two courses”. For the same molecule, the “efficacy (SD, stable disease), cases” value ([5]; 3.0 mg/m^2, 336 hours once every three weeks, RECIST) was “one out of the three cases”, the “platelet reduction of Grade 4” value ([5]; 4.0 mg/m^2, 336 hours once every three weeks) was “one out of the three cases” and the “febrile neutropenia of CTCAE Grade 3” value ([5]; 4.0 mg/m^2, 336 hours once every three weeks, three cases) was “all cases”. The “dose limiting toxicity (DLT) observed, cases” value ([5]; 4.0 mg/m^2, 336 hours once every three weeks, three out of three cases) was 100%, the “antitumor effect (relative tumor volume)” value [6] was “significantly high antitumor effect” and the “antitumor effect (relative tumor volume)” value [7] was “high antitumor effect”. For the same molecule, the “adverse event requiring interruption of the administration” value ([8]; 3.0 mg/m^2, 168 hours once every two weeks) was “no adverse event was seen that required interruption of the administration”, the “febrile neutropenia of CTCAE Grade 3” value [8, 10] was “one case” and the “neutropenia of Grade 4” value [8, 10] was “one case”. The “efficacy (SD, stable disease), cases” value ([8]; 4.0 mg/m^2, 168 hours once every two weeks, two out of the three cases) was 67% and the “dose limiting toxicity (DLT) observed, cases” value ([8]; 4.0 mg/m^2, 168 hours once every two weeks, two out of three evaluable cases) was 67%.
